Assay: Influence of reaction temperature on stability of Re186-HEDP during storage at ambient temperature
Assay type: physicochemical

Substance: rhenium-186 labelled 1-hydroxyethylidene diphosphonate [Re186-HEDP]
- Re186-HEDP content at t=0 (labelling by heating 15 minutes in a boiling water bath (just below 100° C.), t=0): 99.12%
- Re186-HEDP content at t=24 h (labelling by heating 15 minutes in a boiling water bath, storage at ambient temperature, t=24 h): 93.72%

Source: patent US7018612B1, “Method of preparing a radioactive rhenium complex solution” (Mallinckrodt Inc., priority 1990, dated 2006)
